Results published in US9617289B2, “RSV antiviral compounds” (JANSSEN R&D IRELAND, priority 2012, dated 2017).

Tests used:
rgRSV224 virus = test: Antiviral activity: inhibition of rgRSV224 (GFP-expressing RSV) replication in HeLa cells; assay type: cell-based, respiratory syncytial virus; conditions: human respiratory syncytial virus, HeLa, 72 h, read-out: RSV-wt_pEC50, rgRSV224 (MOI=0.02) in HeLa cells, GFP expression three days post-virus exposure
Method in brief: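 HeLa cells infected with GFP-expressing rgRSV224 at MOI 0.02 alongside 4-fold compound dilutions in duplicate (0.5% DMSO). Incubated 3 days at 37 °C; EC50 taken as 50% inhibition of GFP expression by laser microscopy. CC50 measured in parallel uninfected cells by ATP content after 3 days; SI = CC50/EC50.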

Compound	EC50 (rgRSV224 virus)	melting point
CC(=O)NS(=O)(=O)N1CCC2(CC1)C(=O)N(Cc1cc3cc(Cl)ccc3n1CCCC#N)c1cnccc12 [Compound 172, N-[(1′-{[5-Chloro-1-(3-cyanopropyl)-1H-indol-2-yl]methyl}-2′-oxo-1′,2′-dihydro-1H-spiro[piperidine-4,3′-pyrrolo[2,3-c]pyridin]-1-yl)sulfonyl]acetamide]	0.0661 nM	230.52 °C
N#CCCCn1c(CN2c3ccccc3[C@]3(C[C@@H](O)C3)C2=O)nc2cc(Cl)ccc21 [Compound 176, 4-(5-chloro-2-(((1r,3r)-3-hydroxy-2′-oxospiro[cyclobutane-1,3′-indolin]-1′-yl)methyl)-1H-benzo[d]imidazol-1-yl)butanenitrile]	0.363 nM	217.25 °C
COC(=O)N1CCC2(CC1)C(=O)N(Cc1nc3cc(Cl)ccc3n1CCCCF)c1cnccc12 [Compound 178, Methyl 1′-{[5-chloro-1-(4-fluorobutyl)-1H-benzimidazol-2-yl]methyl}-2′-oxo-1′,2′-dihydro-1H-spiro[piperidine-4,3′-pyrrolo[2,3-c]pyridine]-1-carboxylate]	0.0288 nM	182.68 °C
CC(C)OC(=O)N1CCC2(CC1)C(=O)N(Cc1nc3cc(Cl)ccc3n1CCCCF)c1cnccc12 [Compound 179, 1-Methylethyl 1′-{[5-chloro-1-(4-fluorobutyl)-1H-benzimidazol-2-yl]methyl}-2′-oxo-1′,2′-dihydro-1H-spiro[piperidine-4,3′-pyrrool[2,3-c]pyridine]-1-carboxylate]	0.0437 nM	198.92 °C
N#CCCCn1c(CN2C(=O)C3(CN(S(=O)(=O)C4CC4)C3)c3ccccc32)nc2cc(Cl)ccc21 [Compound 180, 4-(5-Chloro-2-{[1-(cyclopropylsulfonyl)-2′-oxospiro[azetidine-3,3′-indol]-1′(2′H)-yl]methyl}-1H-benzimidazol-1-yl)butanenitrile]	0.117 nM	190.42 °C
N#CCCCn1c(CN2C(=O)C3(CCN(C(=O)C(O)(C(F)(F)F)C(F)(F)F)CC3)c3ccncc32)nc2cc(Cl)ccc21 [Compound 181, 4-[5-Chloro-2-({2′-oxo-1-[3,3,3-trifluoro-2-hydroxy-2-(trifluoromethyl)propanoyl]spiro[piperidine-4,3′-pyrrolo[2,3-c]pyridin]-1′(2′H)-yl}methyl)-1H-benzimidazol-1-yl]butanenitrile]	0.251 nM	240.41 °C
CC(C)(O)C(=O)N1CC2(C1)C(=O)N(Cc1nc3cc(Cl)ccc3n1CCCCF)c1ccccc12 [Compound 183, 1′-{[5-Chloro-1-(4-fluorobutyl)-1H-benzimidazol-2-yl]methyl}-1-(2-hydroxy-2-methylpropanoyl)spiro[azetidine-3,3′-indol]-2′(1′H)-one]	0.0759 nM	219.71 °C
